Experimental data: patent US20180162844A1, “CYCLOPROPANE DERIVATIVE AND DRUG CONTAINING SAME” (EA PHARMA CO., LTD., priority 2015, published 2018)

Molecular target: T1, human TRPA1 (Homo sapiens, UniProt O75762)
T1 construct: full-length human TRPA1 gene was amplified; expressed in transfected cells; host or cells: Human embryonic kidney-derived 293T cells, transient transfection with pcDNA3.1/zeo(+) human TRPA1 expression plasmid
Assay: Measurement of TRPA1 antagonist activity (intracellular calcium increase, allylisothiocyanate stimulation, 293T cells transfected with human TRPA1 expression plasmid)
Format: cell-based
Settings: Comparative Examples (Table 8-2); 293T cells expressing human TRPA1, allylisothiocyanate stimulation, FLIPR Calcium4, test substance added 10 min before AITC; read-out: hTRPA1 IC50
Method: Experimental Example 1: Measurement of TRPA1 antagonist Activity
Human TRPA1 Expression Plasmid
Using cDNA encoding human TRPA1 (GenBank accession No. NM_007332) (manufactured by Kazusa DNA Research Institute, item No.: FHC07217) as a template, primer 1 (SEQ ID NO: 1) and primer 2 (SEQ ID NO: 2), PCR by PfuUltra High-Fidelity DNA Polymerase (Stratagene) was performed, and full-length human TRPA1 gene was amplified.
A recognition site (underlined) of restriction enzyme HindIII was added to the 5′ end of human TRPA1 gene, and XbaI site (underlined) was added to the 3′ end of human TRPA1 gene, and GTT of the template sequence was changed to termination codon TAG (bold). The obtained double stranded DNA was enzyme-digested with HindIII and XbaI, and introduced into a multicloning site of expression plasmid pcDNA3.1/zeo(+) (manufactured by Invitrogen) to give a human TRPA1 expression plasmid.
Human embryonic kidney-derived 293T cells were cultured in Dulbecco's Modified Eagle Medium containing 10% fetal bovine serum, 10 unit penicillin, and 10 μg streptomycin. One day before assay, 3×10^6 of 293T cells were plated on a petri dish having a diameter of 10 cm, and cultured in a CO2 incubator for 24 hr. OPTI-MEM I Reduced Serum Media (Invitrogen). (600 μL), Mirus TransIT-293 (Mirus Bio) (18 μL), and human TRPA1 expression plasmid (6 μg) were mixed, the total amount of the mixture was added to the cells on the petri dish to allow for gene transfer. The cells were recovered about for 8 hr later, plated on a poly-D-lysine coated 384 well black/clear bottom plate at 12,000 cells/well, and cultured overnight.
Measurement of Intracellular Calcium Increase
The medium was removed from the 384 well plate, calcium indicator (Molecular Device, trade name: FLIPR Calcium4 Assay Kit) dissolved in HBSS (Thermo Fisher Scientific) (pH 7.2) containing 20 mM HEPES was added (38 μL/well), and the cells were stained in a CO2 incubator for 1 hr. The 384 well plate was stood at room temperature for not less than 15 min, set on FDSS7000 (Hamamatsu Photonics K.K.), and a test substance solution was added at 10 μL/well. After 10 min, allylisothiocyanate solution (12 μL/well) was added, the relative fluorescence intensity was measured for 5 min after addition of the allylisothiocyanate solution.
Preparation of Test Substance Solution and Allylisothiocyanate Solution
A test substance solution was prepared to have a composition of HBSS (Thermo Fisher Scientific) (pH 7.2) containing 0.48% dimethyl sulfoxide, a test substance at 4.8-fold concentration of the evaluation concentration, 0.1% bovine serum albumin and 20 mM HEPES. An allylisothiocyanate solution was prepared to have a composition of HBSS (Thermo Fisher Scientific) (pH 7.2) containing 0.1% dimethyl sulfoxide, 100 μM allylisothiocyanate, 0.1% bovine serum albumin and 20 mM HEPES.
Calculation of Antagonist Activity
The activity rate of a test substance at each concentration was calculated, wherein the relative fluorescence intensity change of a well free of a test substance and containing allylisothiocyanate is 100% activity rate, and the relative fluorescence intensity change of a well free of a test substance and allylisothiocyanate is 0% activity rate. The inhibitory rate of a test substance at each concentration was calculated by subtracting the activity rate of the test substance from 100% activity rate, and the concentration of a test substance showing 50% inhibitory rate was calculated as IC50 from the sigmoid approximate curve by XLFit (idbs).

T1 sequence (O75762 whole entry): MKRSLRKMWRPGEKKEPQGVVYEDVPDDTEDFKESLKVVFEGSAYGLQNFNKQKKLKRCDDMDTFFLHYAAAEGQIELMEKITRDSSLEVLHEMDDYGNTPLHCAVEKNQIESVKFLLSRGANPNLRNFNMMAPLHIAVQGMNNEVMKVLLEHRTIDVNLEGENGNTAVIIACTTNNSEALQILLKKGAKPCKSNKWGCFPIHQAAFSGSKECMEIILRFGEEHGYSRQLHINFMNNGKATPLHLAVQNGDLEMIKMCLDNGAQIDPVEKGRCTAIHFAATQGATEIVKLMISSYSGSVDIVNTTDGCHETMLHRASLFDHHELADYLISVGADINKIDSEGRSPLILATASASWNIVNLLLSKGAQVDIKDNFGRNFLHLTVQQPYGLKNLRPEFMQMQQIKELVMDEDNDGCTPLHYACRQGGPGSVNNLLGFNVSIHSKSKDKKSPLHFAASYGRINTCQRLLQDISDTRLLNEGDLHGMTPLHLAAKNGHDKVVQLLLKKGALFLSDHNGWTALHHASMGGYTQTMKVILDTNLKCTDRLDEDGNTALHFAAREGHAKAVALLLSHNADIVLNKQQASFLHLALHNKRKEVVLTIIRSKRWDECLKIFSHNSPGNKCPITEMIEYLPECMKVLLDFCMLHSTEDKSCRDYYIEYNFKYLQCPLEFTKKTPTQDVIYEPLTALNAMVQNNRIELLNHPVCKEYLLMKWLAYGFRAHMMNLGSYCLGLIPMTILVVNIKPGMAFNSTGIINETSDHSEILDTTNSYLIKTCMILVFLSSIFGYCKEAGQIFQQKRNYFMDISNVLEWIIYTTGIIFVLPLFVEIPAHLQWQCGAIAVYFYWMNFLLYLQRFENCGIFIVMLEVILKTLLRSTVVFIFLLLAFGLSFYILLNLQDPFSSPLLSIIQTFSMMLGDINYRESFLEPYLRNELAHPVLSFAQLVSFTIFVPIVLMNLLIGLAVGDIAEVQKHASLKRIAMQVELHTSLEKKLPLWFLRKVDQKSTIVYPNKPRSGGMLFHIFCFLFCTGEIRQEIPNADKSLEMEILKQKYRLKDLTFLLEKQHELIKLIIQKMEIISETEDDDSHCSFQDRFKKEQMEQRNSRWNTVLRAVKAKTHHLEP

IC50 [nM]	Structure (SMILES)
180	CC(C)N(C1(C(=O)NCc2cc(-c3ccc(C(F)(F)F)nc3)ncn2)CC1)S(=O)(=O)c1ccc(F)cc1 [Comparative Example 1, 1-[(4-fluorophenyl)sulfonyl-isopropyl-amino]-N-[[6-[6-(trifluoromethyl)-3-pyridyl]pyrimidin-4-yl]methyl]cyclopropanecarboxamide, reference compound]
> 1000	O=C(NCc1cc(-c2ccc(C(F)(F)F)cc2)nc(N2CCCC2)c1)C1(NS(=O)(=O)c2ccc(F)cc2)CC1 [Comparative Example 2, 1-[(4-fluorophenyl)sulfonylamino]-N-[[2-pyrrolidin-1-yl-6-[4-(trifluoromethyl)phenyl]-4-pyridyl]methyl]cyclopropanecarboxamide, reference compound]
> 1000	O=C(NCc1cc(-c2ccc(C(F)(F)F)cc2)nc(N2CCCC2)c1)C1(NS(=O)(=O)c2ccco2)CC1 [Comparative Example 3, 1-(2-furylsulfonylamino)-N-[[2-pyrrolidin-1-yl-6-[4-(trifluoromethyl)phenyl]-4-pyridyl]methyl]cyclopropanecarboxamide, reference compound]
> 1000	O=C(NCc1cc(-c2ccc(C(F)(F)F)cc2)nc(N2CCCC2)c1)C1(NS(=O)(=O)c2ccc(Cl)s2)CC1 [Comparative Example 4, 1-[(5-chloro-2-thienyl)sulfonylamino]-N-[[2-pyrrolidin-1-yl-6-[4-(trifluoromethyl)phenyl]-4-pyridyl]methyl]cyclopropanecarboxamide, reference compound]

Same assay, conditions: Examples (Table 8-1); 293T cells expressing human TRPA1, allylisothiocyanate stimulation, FLIPR Calcium4, test substance added 10 min before AITC; read-out: hTRPA1 IC50

Structure (SMILES)	IC50 [nM]
O=C(NCc1cc(-c2cnc(C(F)(F)F)nc2)ccn1)C1(NS(=O)(=O)c2cc3cc(F)ccc3o2)CC1 [Example 5, 1-[(5-fluorobenzofuran-2-yl)sulfonylamino]-N-[[4-[2-(trifluoromethyl)pyrimidin-5-yl]-2-pyridyl]methyl]cyclopropane-carboxamide]	260
O=C(NCc1cc(-c2ncc(C(F)(F)F)cn2)ccn1)C1(NS(=O)(=O)c2cc3cc(F)ccc3o2)CC1 [Example 6, 1-[(5-fluorobenzofuran-2-yl)sulfonylamino]-N-[[4-[5-(trifluoromethyl)pyrimidin-2-yl]-2-pyridyl]methyl]cyclopropane-carboxamide]	230
O=C(NCc1cc(-c2cnc(C(F)(F)F)cn2)ccn1)C1(NS(=O)(=O)c2cc3cc(F)ccc3o2)CC1 [Example 7, 1-[(5-fluorobenzofuran-2-yl)sulfonylamino]-N-[[4-[5-(trifluoromethyl)pyrazin-2-yl]-2-pyridyl]methyl]cyclopropane-carboxamide]	170
O=C(NCc1cc(-c2ccc(C(F)(F)F)nn2)ccn1)C1(NS(=O)(=O)c2cc3cc(F)ccc3o2)CC1 [Example 8, 1-[(5-fluorobenzofuran-2-yl)sulfonylamino]-N-[[4-[6-(trifluoromethyl)pyridazin-3-yl]-2-pyridyl]methyl]cyclopropane-carboxamide]	74
O=C(NCc1cc(-c2cnc(C(F)(F)F)nc2)ncn1)C1(NS(=O)(=O)c2cc3cc(F)ccc3o2)CC1 [Example 14, 1-[(5-fluorobenzofuran-2-yl)sulfonylamino]-N-[[6-[2-(trifluoromethyl)pyrimidin-5-yl]pyrimidin-4-yl]methyl]cyclopropanecarboxamide]	47

The remaining lines, values ahead:

IC50 [nM]	Structure (SMILES)
33	O=C(NCc1cc(-c2ccc(C(F)(F)F)cc2)ncn1)C1(NS(=O)(=O)c2cc3cc(F)ccc3o2)CC1 [Example 1, 1-[(5-fluorobenzofuran-2-yl)sulfonylamino]-N-[[6-[4-(trifluoromethyl)phenyl]pyrimidin-4-yl]methyl]cyclopropanecarboxamide]
120	O=C(NCc1ccnc(-c2cnc(C(F)(F)F)nc2)c1)C1(NS(=O)(=O)c2cc3cc(F)ccc3o2)CC1 [Example 2, 1-[(5-fluorobenzofuran-2-yl)sulfonylamino]-N-[[2-[2-(trifluoromethyl)pyrimidin-5-yl]-4-pyridyl]methyl]cyclopropane-carboxamide]
72	O=C(NCc1ccnc(-c2ccc(C(F)(F)F)cc2O)c1)C1(NS(=O)(=O)c2cc3cc(F)ccc3o2)CC1 [Example 3, 1-[(5-fluorobenzofuran-2-yl)sulfonylamino]-N-[[2-[2-hydroxy-4-(trifluoromethyl)phenyl]-4-pyridyl]methyl]cyclopropane-carboxamide]
22	O=C(NCc1cc(-c2ccc(C(F)(F)F)cn2)ccn1)C1(NS(=O)(=O)c2cc3cc(F)ccc3o2)CC1 [Example 4, 1-[(5-fluorobenzofuran-2-yl)sulfonylamino]-N-[[4-[5-(trifluoromethyl)-2-pyridyl]-2-pyridyl]methyl]cyclopropane-carboxamide]
170	O=C(NCc1cncc(-c2ccc(C(F)(F)F)nc2)c1)C1(NS(=O)(=O)c2cc3cc(F)ccc3o2)CC1 [Example 9, 1-[(5-fluorobenzofuran-2-yl)sulfonylamino]-N-[[5-[6-(trifluoromethyl)-3-pyridyl]-3-pyridyl]methyl]cyclopropane-carboxamide]
110	O=C(NCc1cncc(-c2ccc(C(F)(F)F)cn2)c1)C1(NS(=O)(=O)c2cc3cc(F)ccc3o2)CC1 [Example 10, 1-[(5-fluorobenzofuran-2-yl)sulfonylamino]-N-[[5-[5-(trifluoromethyl)-2-pyridyl]-3-pyridyl]methyl]cyclopropane-carboxamide]
40	O=C(NCc1cc(-c2ccc(OC(F)(F)F)cc2)ncn1)C1(NS(=O)(=O)c2cc3cc(F)ccc3o2)CC1 [Example 11, 1-[(5-fluorobenzofuran-2-yl)sulfonylamino]-N-[[6-[4-(trifluoromethoxy)phenyl]pyrimidin-4-yl]methyl]cyclopropanecarboxamide]
30	O=C(NCc1cc(-c2ccc(C(F)(F)F)nc2)ncn1)C1(NS(=O)(=O)c2cc3cc(F)ccc3o2)CC1 [Example 12, 1-[(5-fluorobenzofuran-2-yl)sulfonylamino]-N-[[6-[6-(trifluoromethyl)-3-pyridyl]pyrimidin-4-yl]methyl]cyclopropanecarboxamide]
110	O=C(NCc1cc(-c2ccc(C(F)(F)F)cn2)ncn1)C1(NS(=O)(=O)c2cc3cc(F)ccc3o2)CC1 [Example 13, 1-[(5-fluorobenzofuran-2-yl)sulfonylamino]-N-[[6-[5-(trifluoromethyl)-2-pyridyl]pyrimidin-4-yl]methyl]cyclopropanecarboxamide]
310	O=C(NCc1cnnc(-c2ccc(C(F)(F)F)cc2)c1)C1(NS(=O)(=O)c2cc3cc(F)ccc3o2)CC1 [Example 15, 1-[(5-fluorobenzofuran-2-yl)sulfonylamino]-N-[[6-[4-(trifluoromethyl)phenyl]pyridazin-4-yl]methyl]cyclopropanecarboxamide]
990	O=C(NCc1cnnc(-c2ccc(C(F)(F)F)nc2)c1)C1(NS(=O)(=O)c2cc3cc(F)ccc3o2)CC1 [Example 16, 1-[(5-fluorobenzofuran-2-yl)sulfonylamino]-N-[[6-[6-(trifluoromethyl)-3-pyridyl]pyridazin-4-yl]methyl]cyclopropanecarboxamide]
240	O=C(NCc1cc(-c2ccc(C(F)(F)F)cn2)cnn1)C1(NS(=O)(=O)c2cc3cc(F)ccc3o2)CC1 [Example 17, 1-[(5-fluorobenzofuran-2-yl)sulfonylamino]-N-[[5-[5-(trifluoromethyl)-2-pyridyl]pyridazin-3-yl]methyl]cyclopropanecarboxamide]
